The values below come from ChEMBL document CHEMBL1157650, “Synthesis and bradykinin inhibitory activity of novel non-peptide compounds, and evaluation of in vivo analgesic activity” (2010).

Structures are written as SMILES. Active and inactive are the calls of the source. The calls are words filed in the database; no cut-off is given here.

As usually defined, the inhibition is the share of the control response that was lost under treatment. A high value points to a strong effect.

The first experiment concerns Rattus norvegicus. Nature of the experiment: Antinociceptive activity against formalin-induced pain in rat assessed as time spent in licking, shaking or biting paw in early phase at 60 ug, sc (Rvb=47.05 +/- 8.53 sec). It counts as functional.
Conditions: not given
Consider `CC(CCc1ccccc1)NC(=O)/C=C\C(=O)N1CCN(C(c2ccc(F)cc2)c2ccc(F)cc2)CC1` (centres undefined), for which the Activity turned out to be 14.82 s.

A further experiment concerns Rattus norvegicus. The experiment is described as follows: Analgesic activity in S1/S2 spinal nerve ligated rat model of neuropathic pain assessed as suppression of warm water-induced allodynia at 60 mg/kg, ip.
Conditions: not given
Set-up: dose 60 mg/kg. It is filed as functional, organism-based.
As for `CC(CCc1ccccc1)NC(=O)/C=C\C(=O)N1CCN(C(c2ccc(F)cc2)c2ccc(F)cc2)CC1` (centres undefined), the outcome was Active.

In the next experiment the test system is Rattus norvegicus. Nature of the experiment: Analgesic activity in S1/S2 spinal nerve ligated rat model of neuropathic pain assessed as suppression of cold water-induced allodynia at 60 mg/kg, ip. Set-up: dose 60 mg/kg.
Conditions: not given
It is filed as functional, organism-based.
As for `CC(CCc1ccccc1)NC(=O)/C=C\C(=O)N1CCN(C(c2ccc(F)cc2)c2ccc(F)cc2)CC1` (centres undefined), the outcome was Active.

Another experiment deals with Ileum. The experiment is described as follows: Inhibition of bradykinin-induced Hartley guinea pig ileum contraction at 1 uM relative to control. Conditions: Cavia porcellus. It counts as functional.
Compound `O=C(/C=C\C(=O)N1CCN(C(c2ccccc2)c2ccc(Cl)cc2)CC1)NC1CCCCC1` (centres undefined) registered an inhibition at 1 µM of 57.4%.

In turn, `COc1ccc(CNC(=O)/C=C\C(=O)N2CCCN(C(c3ccccc3)c3ccc(Cl)cc3)CC2)cc1` (centres undefined) showed an inhibition at 1 µM of 75%.

For `Cc1ccc(CNC(=O)CCC(=O)N2CCN(C(c3ccccc3)c3ccc(Cl)cc3)CC2)cc1` (centres undefined), the inhibition at 1 µM came out at 67.9%.

The compound `N=C(N)NCCC[C@@H](N)C(=O)N[C@@H](CCCNC(=N)N)C(=O)N1CCC[C@H]1C(=O)N1C[C@H](O)C[C@H]1C(=O)NCC(=O)N[C@@H](Cc1cccs1)C(=O)N[C@@H](CO)C(=O)N1Cc2ccccc2C[C@@H]1C(=O)N1[C@H](C(=O)N[C@@H](CCCNC(=N)N)C(=O)O)C[C@@H]2CCCC[C@@H]21` [ICATIBANT] displayed an inhibition at 1 µM of 100%.

Compound `O=C(CCC(=O)N1CCCN(C(c2ccccc2)c2ccc(Cl)cc2)CC1)NC1CCCCC1` (centres undefined) displayed an inhibition at 1 µM of 71.7%.

Regarding `COc1cc(CNC(=O)CC(C)CC(=O)N2CCN(C(c3ccccc3)c3ccc(Cl)cc3)CC2)cc(OC)c1OC` (centres undefined), the inhibition at 1 µM came to 53.1%.

In the case of `CC(CCc1ccccc1)NC(=O)/C=C\C(=O)N1CCN(C(c2ccccc2)c2ccccc2)CC1` (centres undefined), the inhibition at 1 µM amounted to 77.5%.

As for `Cc1ccc(CNC(=O)CC(C)(C)CC(=O)N2CCN(C(c3ccccc3)c3ccc(Cl)cc3)CC2)cc1` (centres undefined), the inhibition at 1 µM turned out to be 32.9%.

With `Cc1ccc(CNC(=O)CC(C)CC(=O)N2CCN(C(c3ccccc3)c3ccc(Cl)cc3)CC2)cc1` (centres undefined), the inhibition at 1 µM was 64.8%.

For `COc1cc(CNC(=O)CC(C)(C)CC(=O)N2CCN(C(c3ccccc3)c3ccc(Cl)cc3)CC2)cc(OC)c1OC` (centres undefined), the inhibition at 1 µM was determined as 49.1%.

Turning to `Cc1ccc(CNC(=O)/C=C\C(=O)N2CCN(C(c3ccc(F)cc3)c3ccc(F)cc3)CC2)cc1`, the inhibition at 1 µM is 84.5%.

In turn, `COc1cc(CNC(=O)CCC(=O)N2CCN(C(c3ccccc3)c3ccc(Cl)cc3)CC2)cc(OC)c1OC` (centres undefined) came in with an inhibition at 1 µM of 65.2%.

For the compound `O=C(/C=C\C(=O)N1CCCN(C(c2ccccc2)c2ccc(Cl)cc2)CC1)NC1CCCCC1` (centres undefined), the inhibition at 1 µM was determined as 66%.

`COc1ccc(CNC(=O)/C=C\C(=O)N2CCN(C(c3ccc(F)cc3)c3ccc(F)cc3)CC2)cc1` displayed an inhibition at 1 µM of 79.6%.

Consider `COc1ccc(CNC(=O)CCC(=O)N2CCN(C(c3ccccc3)c3ccc(Cl)cc3)CC2)cc1` (centres undefined), for which the inhibition at 1 µM came to 57.2%.

Compound `CC(CC(=O)NC1CCCCC1)CC(=O)N1CCCN(C(c2ccccc2)c2ccc(Cl)cc2)CC1` (centres undefined) registered an inhibition at 1 µM of 80.3%.

In turn, `Cc1ccc(CNC(=O)/C=C\C(=O)N2CCCN(C(c3ccccc3)c3ccc(Cl)cc3)CC2)cc1` (centres undefined) gave an inhibition at 1 µM of 79.4%.

As for `CC(CCc1ccccc1)NC(=O)/C=C\C(=O)N1CCCN(C(c2ccccc2)c2ccc(Cl)cc2)CC1` (centres undefined), 1 µM produced 79.7% inhibition.

Regarding `COc1ccc(CNC(=O)CC(C)CC(=O)N2CCN(C(c3ccccc3)c3ccc(Cl)cc3)CC2)cc1` (centres undefined), 1 µM produced 64.9% inhibition.

With `COc1ccc(CNC(=O)CCC(=O)N2CCCN(C(c3ccccc3)c3ccc(Cl)cc3)CC2)cc1` (centres undefined), the inhibition at 1 µM came to 80.9%.

Compound `COc1cc(CNC(=O)CCC(=O)N2CCCN(C(c3ccccc3)c3ccc(Cl)cc3)CC2)cc(OC)c1OC` (centres undefined) yielded an inhibition at 1 µM of 72.6%.

In turn, `COc1ccc(CNC(=O)/C=C\C(=O)N2CCN(C(c3ccccc3)c3ccc(Cl)cc3)CC2)cc1` (centres undefined) came in with an inhibition at 1 µM of 74.1%.

With `Cc1ccc(CNC(=O)/C=C\C(=O)N2CCN(C(c3ccccc3)c3ccc(Cl)cc3)CC2)cc1` (centres undefined), the inhibition at 1 µM is 78.5%.

Compound `CC(CC(=O)N(C)C)CC(=O)N1CCN(C(c2ccccc2)c2ccc(Cl)cc2)CC1` (centres undefined) returned an inhibition at 1 µM of 36%.

On to `Cc1ccc(CNC(=O)CCC(=O)N2CCCN(C(c3ccccc3)c3ccc(Cl)cc3)CC2)cc1` (centres undefined), for which the inhibition at 1 µM stood at 67.7%.

Consider `CC(CCc1ccccc1)NC(=O)/C=C\C(=O)N1CCN(C(c2ccc(F)cc2)c2ccc(F)cc2)CC1` (centres undefined), for which at 1 µM the inhibition was 86.6%.

Take `CC(C)(CC(=O)NC1CCCCC1)CC(=O)N1CCN(C(c2ccccc2)c2ccc(Cl)cc2)CC1` (centres undefined): the inhibition at 1 µM is 28%.

As for `COc1ccc(CNC(=O)CC(C)(C)CC(=O)N2CCN(C(c3ccccc3)c3ccc(Cl)cc3)CC2)cc1` (centres undefined), the inhibition at 1 µM came to 31.6%.

As for `O=C(/C=C\C(=O)N1CCN(C(c2ccc(F)cc2)c2ccc(F)cc2)CC1)NC1CCCCC1`, 1 µM produced 65.4% inhibition.

As for `COc1ccc(CNC(=O)CC(C)CC(=O)N2CCCN(C(c3ccccc3)c3ccc(Cl)cc3)CC2)cc1` (centres undefined), the inhibition at 1 µM came out at 78.3%.

`CC(CC(=O)NC1CCCCC1)CC(=O)N1CCN(C(c2ccccc2)c2ccc(Cl)cc2)CC1` (centres undefined) had an inhibition at 1 µM of 60.8%.

Turning to `COc1cc(CNC(=O)CC(C)CC(=O)N2CCCN(C(c3ccccc3)c3ccc(Cl)cc3)CC2)cc(OC)c1OC` (centres undefined), the inhibition at 1 µM was found to be 69.7%.

In turn, `Cc1ccc(CNC(=O)CC(C)CC(=O)N2CCCN(C(c3ccccc3)c3ccc(Cl)cc3)CC2)cc1` (centres undefined) gave an inhibition at 1 µM of 81.3%.

`O=C(CCC(=O)N1CCN(C(c2ccccc2)c2ccc(Cl)cc2)CC1)NC1CCCCC1` (centres undefined) showed an inhibition at 1 µM of 79%.

In a further experiment the test system is Rattus norvegicus. The experiment is described as follows: Analgesic activity in S1/S2 spinal nerve ligated rat model of neuropathic pain assessed as suppression of mechanical stimuli-induced allodynia at 60 mg/kg, ip. It counts as functional, organism-based. Set-up: dose 60 mg/kg.
Conditions: not given
Regarding `CC(CCc1ccccc1)NC(=O)/C=C\C(=O)N1CCN(C(c2ccc(F)cc2)c2ccc(F)cc2)CC1` (centres undefined), the result was inactive.

For another experiment, the system named is Rattus norvegicus. The experiment is described as follows: Antinociceptive activity against formalin-induced pain in rat assessed as time spent in licking, shaking or biting paw in late phase at 60 ug, sc (Rvb=334.21 +/- 51.10 sec).
Conditions: not given
It is filed as functional.
`CC(CCc1ccccc1)NC(=O)/C=C\C(=O)N1CCN(C(c2ccc(F)cc2)c2ccc(F)cc2)CC1` (centres undefined): the Activity is reported as 129.31 s.
